One data set deals with linearized pUC19 DNA. Kind of data set: DNA cross-linking assay with linearized pUC19 DNA, denaturing agarose gel electrophoresis. Type of data set: biochemical. The note with it: linearized pUC19 DNA, pH 7.0, 1 nM-100 μM. How it is done: FIGS. 6A-6C depict the DNA crosslinking ability of several compounds according to some embodiments. The DNA cross-linking assays employ linear pUC19 DNA. DMSO was used as vehicle (negative control), and 100 μM cisplatin was used as positive controls. The DNA was analyzed by 0.4% NaOH denaturing and agarose gel electrophoresis (90 V, 1.5 h). FIG. 6A depicts the DNA cross-linking comparison of colibactin 770 (3a), stable colibactin 742 (4), and its linear precursor 9 at pH 5.0. FIG. 6B depicts the comparison of the relative DNA cross-linking abilities of colibactin 742 (4) and its linear precursor 9 at pH 5.0. FIG. 6C depicts the comparison of the relative DNA cross-linking abilities of colibactin 742 (4) and its linear precursor 9 at pH 7.0.
FIG. 10 depicts the DNA cross-linking assay employing linear pUC19 DNA and synthetic colibactin (3), 9, and colibactin 742 (4) according to some embodiments. Specifically, 5% DMSO was used as vehicle (negative control), and 100 μM cisplatin was used as positive control. DNA ladder (Lane #1); 5% DMSO (Lane #2); 100 μM cisplatin (Lane #3); 200 μM colibactin (3) (Lane #4); 100 μM colibactin (3) (Lane #5); 10 μM colibactin (3) (Lane #6); 1 μM colibactin (3) (Lane #7); 200 μM 9 (Lane #8); 100 μM 9 (Lane #9); 10 μM 9 (Lane #10); 1 μM 9 (Lane #11); 200 μM colibactin 742 (4) (Lane #12); 100 μM colibactin 742 (4) (Lane #13); 10 μM colibactin 742 (4) (Lane #14); 1 μM colibactin 742 (4) (Lane #15). Conditions (Lane #3): linearized pUC19 DNA (15.4 μM in base pairs), 5% DMSO (vehicle), 100 μM cisplatin, 10 mM citric buffer, pH 5.0, 4 h, 37° C. Conditions (Lanes #4-#7): linearized pUC19 DNA (15.4 μM in base pairs), colibactin (3) (200 μM-1 μM), 5% DMSO, 10 mM citric buffer, pH 5.0, 4 h, 37° C. Conditions (Lanes #8-#11): linearized pUC19 DNA (15.4 μM in base pairs), 9 (200 μM-1 μM), 5% DMSO, 10 mM citric buffer, pH 5.0, 4 h, 37° C. Conditions (Lanes #12-#15): linearized pUC19 DNA (15.4 μM in base pairs), colibactin 742 (4) (200 μM-1 μM), 5% DMSO, 10 mM citric buffer, pH 5.0, 4 h, 37° C. The DNA was analyzed by native, 0.2% NaOH, 0.4% NaOH, and 1% NaOH denaturing agarose gel electrophoresis (90 V, 1.5 h). Linear=linearized DNA in native form, linear-denat.=linearized DNA in denaturing form, linear-XL=linerized DNA cross-linked by colibactins or cisplatin.
FIG. 11 depicts the DNA cross-linking assay employing linear pUC19 DNA and synthetic colibactin fragments 23, 24, and 22. Specifically, 5% DMSO was used as vehicle (negative control), and 100 μM cisplatin was used as positive control. DNA ladder (Lane #1); 5% DMSO (Lane #2); 100 μM cisplatin (Lane #3); 500 μM 23 (Lane #4); 100 μM 23 (Lane #5); 10 μM 23 (Lane #6); 1 μM 23 (Lane #7); 100 nm 23 (Lane #8); 500 μM 24 (Lane #9); 100 μM 24 (Lane #10); 10 μM 24 (Lane #11); 1 μM 24 (Lane #12); 100 nm 24 (Lane #13); 500 μM 22 (Lane #14); 100 μM 22 (Lane #15); 10 μM 22 (Lane #16); 1 μM 22 (Lane #17); 100 nm 22 (Lane #18). Conditions (Lane #2): linearized pUC19 DNA (15.4 μM in base pairs), 5% DMSO (vehicle), 10 mM citric buffer, pH 5.0, 4 h, 37° C. Conditions (Lane #3): linearized pUC19 DNA (15.4 μM in base pairs), 5% DMSO (vehicle), 100 μM cisplatin, 10 mM citric buffer, pH 5.0, 4 h, 37° C. Conditions (Lanes #4-#8): linearized pUC19 DNA (15.4 μM in base pairs), 23 (500 μM-100 nM), 5% DMSO, 10 mM citric buffer, pH 5.0, 4 h, 37° C. Conditions (Lanes #9-#13): linearized pUC19 DNA (15.4 μM in base pairs), 24 (500 μM-1 μM), 5% DMSO, 10 mM citric buffer, pH 5.0, 4 h, 37° C. Conditions (Lanes #14-#18): linearized pUC19 DNA (15.4 μM in base pairs), 22 (500 μM-100 nM), 5% DMSO, 10 mM citric buffer, pH 5.0, 4 h, 37° C. The DNA was analyzed by native, 0.2% NaOH, 0.4% NaOH, and 1% NaOH denaturing agarose gel electrophoresis (90 V, 1.5 h). Linear=linearized DNA in native form, linear-denat.=linearized DNA in denaturing form, linear-XL=DSB/linerized DNA cross-linked by colibactins or cisplatin. […]

A short description of data set [1]: Stability of colibactin 770 in aqueous buffer (LC-MS time course). The data set is classed as physicochemical. How it is done:
FIG. 9 depicts the percentage of colibactin 770 (M+Na) over time at pH 7.4, 37° C. according to some embodiments. Specifically, the linear precursor to colibactin 770 (nominally 404 nmol), prepared according to Xu et al. (Science 2019, 365) was dissolved in DMSO (100 μL) and the resulting solution was diluted with PBS buffer (400 μL) at 22° C. This solution was immediately warmed to 37° C. in a preheated water bath. Aliquots (15 μL) were taken at 0 min, 5 min, 10 min, 15 min, 30 min, 60 min, 120 min, 180 min, 240 min, 300 min, and 480 min. Each aliquot was dissolved in acetonitrile (150 μL) and then immediately frozen in liquid nitrogen. The frozen aliquots were stored at −78° C. until the time course was complete. Aliquots were quickly thawed and analyzed using a Shimadzu Scientific Instruments QToF 9030 LC-MS system, equipped with a Nexera LC-40D xs UHPLC, consisting of a CBM-40 Lite system controller, a DGU-405 Degasser Unit, two LC-40D XS UHPLC pumps, a SIL-40C XS autosampler and a Column Oven CTO-40S. UV data was collected with a Shimadzu Nexera HPLC/UHPLC Photodiode Array Detector SPD M-40 in the range of 190-800 nm. Mass spectra were recorded with the quadrupole time-of-flight (QToF) 9030 mass spectrometer. The samples were held at 4° C. in the autosampler compartment. […]

The subject of the next data set is eukaryotic cells. The data set is described as follows: Genotoxicity of synthetic colibactin 770 in eukaryotic cells. The data set is classed as cell-based. The note with it: eukaryotic cells treated with the synthetic compound.

These results are taken from US20250026747A1, “COLIBACTIN DERIVATIVES AND METHODS OF TREATING, AMELIORATING, AND/OR PREVENTING CANCER” (priority 2021, published 2025).

Bounds are passed on as bounds.

`C[C@H]1CCC(C2=C(CC(=O)NCC(=O)c3csc(C(=O)C(=O)c4csc(CNC(=O)CC5=C(C6=N[C@@H](C)CC6)C(=O)NC56CC6)n4)n3)C3(CC3)NC2=O)=N1` [colibactin 770 (3a)]: the “DNA interstrand cross-link (ICL) formation” value in the data set on linearized pUC19 DNA is “fails to produce detectable levels of ICLs”. Also, the “stability at pH 7.0” value in data set [1] (pH 7.0) is listed as “readily decomposes”. Further, the “time to degradation in aqueous buffer” value in data set [1] (pH 7.4, 37° C.) was at most 2 h. For the same compound, in the data set with eukaryotic cells, the genotoxicity entry was “no genotoxicity was observed”.
